Patent publication US20100119483A1, “PEPTIDE VIRAL ENTRY INHIBITORS” (Schering Corporation, priority 2004, published 2010)
Where “and” joins values, the source holds several entries; their conditions need not be identical. Equal values may be shown once.

Test system: HCV pseudoparticles
Assay: HCV pseudoparticle (HCVpp) entry assay in Huh7 hepatoma cells, luciferase readout
Assay type: cell-based, hepatitis C virus
Settings: for % of control at ~30 uM: percentage of hepatitis C virus cellular entry at 30 μM peptide vs uninhibited control
Protocol: HCV pseudotype particle generation. Single cycle HCV pseudoparticles are composed of a replication-defective HIV genome and HCV envelope proteins. These pseudoparticles were made by transfecting 293T cells with 5 ug of each pNL43E-R-luc (Chen et al., J. Virol. 68(2):654-60 (1994)) and plasmid expressing HCV envelope proteins pCMV/E1-2 with profection transfection kit from Promega (Madison, Wis.). The medium was refreshed 12-24 hours after transfection and supernatant was collected 48 hours after transfection. The supernatant from a transfection of only pNL43E-R-luc was used each time as a control for non specific entry events.
Infection of hepatoma cell lines with HCV pseudotype particles and screen for inhibitory peptides. The hepatoma cells, Huh7, was seeded at 8000 cells in 90 ul medium in 96-well plate. In the case of the inhibitor screen, the inhibitor was incubated with cells for one hour at 37° C. and then 50 ul viral supernatant was added to the cells 24 hours after seeding. The viral stock was pre-tittered and diluted to yield approximately 10,000 to 20,000 RLU. The cells were incubated at 37° C. with 5% CO2 for additional 72 hours and were harvested for luciferase assay. Peptide stocks were prepared in 100% DMSO at 10 mg/ml and were first screened at 100 ug/ml and then a dose responsive curve was generated with 10 points 3-fold titration starting from 100 ug/ml.
The peptide of SEQ ID NO: 77 was first serial diluted by the factor of 3 in 100% DMSO from 100 ug/ml and then transferred to the assay plates at 100-fold dilution. The peptide was first incubated with cells and HCVpp (A) or HIVpp (B), respectively, for 30 minutes at […] in this experiment. Then, the medium containing the peptide was removed from the cells and virus with peptide was added to the cells. Cells were incubated for 72 hours and then were harvested for luciferase assay. Two separate trials were performed.
In addition, the peptide of SEQ ID NO: 77 was mutated at several positions and assayed in the HCV entry assay discussed above. […] The assays were performed essentially as described above.

[1] = 0.1 nM of peptide (printed for three rows), two values per peptide and row
[2] = 0.3 nM of peptide, two values per peptide
[3] = 1 nM of peptide, two values per peptide
[4] = 3 nM of peptide, two values per peptide
[5] = 10 nM of peptide, two values per peptide
[6] = 30 nM of peptide, two values per peptide
[7] = 100 nM of peptide, two values per peptide
[8] = 300 nM of peptide, two values per peptide
[9] = 30000 nM of peptide, two values per peptide
[10] = 10000 nM of peptide, two values per peptide

| Substance | % control (HCVpp entry), proline scanning [1] | % control (HCVpp entry), proline scanning [2] | % control (HCVpp entry), proline scanning [3] | % control (HCVpp entry), proline scanning [4] | % control (HCVpp entry), proline scanning [5] | % control (HCVpp entry), proline scanning [6] | % control (HCVpp entry), proline scanning [7] | % control (HCVpp entry), proline scanning [8] | % control (HCVpp entry), proline scanning [9] | % control (HCVpp entry), alanine scanning [1] | % control (HCVpp entry), alanine scanning [2] | % control (HCVpp entry), alanine scanning [3] | % control (HCVpp entry), alanine scanning [4] | % control (HCVpp entry), alanine scanning [5] | % control (HCVpp entry), alanine scanning [6] | % control (HCVpp entry), alanine scanning [7] | % control (HCVpp entry), alanine scanning [8] | % of control at ~30 uM [%] | other results |
| --- | --- | --- | --- | --- | --- | --- | --- | --- | --- | --- | --- | --- | --- | --- | --- | --- | --- | --- | --- |
| A-I-K-P-E-Y-V-L-L-L-F-L-L (AIKPEYVLLLFLL; HCV peptide) [SEQ ID NO: 118] | 87 % control and 80 % control and 108 % control and 103 % control and 79 % control and 110 % control | 92 % control and 101 % control | 99 % control and 74 % control | 84 % control and 108 % control | 83 % control and 116 % control | 93 % control and 63 % control | 53 % control and 47 % control | 29 % control and 38 % control | 33 % control and 24 % control | – | – | – | – | – | – | – | – | – | – |
| A-I-K-W-A-Y-V-L-L-L-F-L-L (AIKWAYVLLLFLL; HCV peptide) [SEQ ID NO: 90, Ala-scan] | – | – | – | – | – | – | – | – | – | 105 % control and 98 % control and 82 % control and 106 % control and 116 % control and 96 % control | 73 % control and 94 % control | 66 % control and 98 % control | 106 % control and 81 % control | 66 % control and 46 % control | 69 % control and 63 % control | 51 % control and 43 % control | 55 % control | 13 | – |
| A-I-K-W-E-A-V-L-L-L-F-L-L (AIKWEAVLLLFLL; HCV peptide) [SEQ ID NO: 91, Ala-scan] | – | – | – | – | – | – | – | – | – | 101 % control and 73 % control and 107 % control and 89 % control and 93 % control and 111 % control | 81 % control and 84 % control | 120 % control and 102 % control | 86 % control and 110 % control | 59 % control and 66 % control | 49 % control and 48 % control | 35 % control and 32 % control | 17 % control and 27 % control | 16 | % control (HCVpp entry), alanine scanning [10]: 30 % control and 15 % control; % control (HCVpp entry), alanine scanning [9]: 12 % control and 18 % control |
| A-I-K-W-E-K-V-L-L-L-F-L-L (AIKWEKVLLLFLL; HCV peptide) [SEQ ID NO: 130] | – | – | – | – | – | – | – | – | – | – | – | – | – | – | – | – | – | – | % control (HCVpp entry), lysine scanning [1]: 122 % control and 84 % control and 106 % control and 96 % control and 105 % control and 93 % control; % control (HCVpp entry), lysine scanning [2]: 103 % control and 100 % control; % control (HCVpp entry), lysine scanning [3]: 114 % control and 89 % control; % control (HCVpp entry), lysine scanning [4]: 95 % control and 81 % control; % control (HCVpp entry), lysine scanning [5]: 90 % control and 102 % control; % control (HCVpp entry), lysine scanning [6]: 74 % control and 75 % control; % control (HCVpp entry), lysine scanning [8]: 33 % control and 19 % control |
| A-I-K-W-E-P-V-L-L-L-F-L-L (AIKWEPVLLLFLL; HCV peptide) [SEQ ID NO: 120] | 82 % control and 78 % control and 102 % control and 80 % control and 101 % control and 117 % control | 90 % control and 75 % control | 91 % control and 75 % control | 66 % control and 76 % control | 73 % control and 76 % control | 72 % control and 40 % control | 39 % control | 33 % control and 39 % control | 38 % control and 42 % control | – | – | – | – | – | – | – | – | – | % control (HCVpp entry), proline scanning [10]: 24 % control |
| A-I-K-W-E-Y-A-L-L-L-F-L-L (AIKWEYALLLFLL; HCV peptide) [SEQ ID NO: 92, Ala-scan] | – | – | – | – | – | – | – | – | – | 73 % control and 115 % control and 82 % control and 89 % control and 99 % control and 130 % control | 85 % control and 61 % control | 90 % control and 80 % control | 68 % control and 99 % control | 82 % control and 59 % control | 42 % control and 64 % control | 32 % control and 25 % control | 21 % control and 30 % control | 17 | – |
